Patent US20250206732A1, “COMPOUNDS AND METHODS FOR THE TARGETED DEGRADATION OF KRAS” (Arvinas Operations, Inc., priority 2022, published 2025)

Target: T1, AsPC-1 HiBiT-KRASG12D (Homo sapiens, UniProt P01116, G12D)
T1 construct: insert the HiBiT tag onto the N-terminus of one or more of the endogenous KRAS alleles; endogenous in cells; host or cells: AsPC-1 (ATCC CRL-1682), CRISPR-Cas9 knock-in clone, one tagged allele
Assay: HiBiT degradation assay (G12D), AsPC-1 HiBiT-KRASG12D cells
Assay type: cell-based
Details: 24 hours treatment; for Dmax: ASPC1, AsPC-1 HiBiT-KRASG12D cells, maximum degradation observed; for DC50: AsPC-1 HiBiT-KRASG12D cells, HiBiT luminescence
Description: Reagents. […] SW1573 cells are homozygous for the G12C mutation in KRAS, AsPC-1 cells are homozygous for the G12D mutation, and SW620 cells are homozygous for the G12V mutation. […] For degradation assays, 384 well plates were used. Alamar blue was purchased from ThermoFisher scientific (A50101) and used according to manufacturer instructions. The Nano-Glo® HiBiT Lytic Detection System and Nano-Glo® HiBiT Blotting System were purchased from Promega (#N3050 and #N2410) and used according to manufacturer instructions.
To create the AsPC-1 HiBiT-KRASG12D cell line, CRISPR-Cas9 was used to insert the HiBiT tag onto the N-terminus of one or more of the endogenous KRAS alleles. […] After knock-in of the tag, individual clones were isolated by single cell dilution and screened for HiBiT insertion by PCR. […] This clone was used in further studies.
HiBiT degradation assays (G12C and G12D). […] All assays were performed in triplicate. Cells were treated with compounds for 24 hours at 37° C. in an incubator containing 5% CO2. Following treatment, alamar blue was used to determine if any compounds led to a loss in cell viability after 24 hours. The 10× alamar blue reagent was added to a final concentration of 1× as recommended by the manufacturer and cells were returned to the incubator for 4 hours. Plates were then allowed to equilibrate to room temperature and fluorescence was measured using a Perkin-Elmer EnVision. After completion of the fluorescence read, the liquid from each well was removed and the cells were washed with PBS. The Nano-Glo® HiBiT detection reagent was prepared according to the manufacturer's instructions and added to each well after the PBS wash was removed. Following incubation at room temperature for 45 minutes, the luminescence was read using the ultra-sensitive luminescence aperture on the Envision instrument.
Data analysis. Fluorescence values from the alamar blue treatment were normalized to the DMSO-only control for each compound titration.

T1 sequence (P01116 1-188 isoform P01116-2 G12D): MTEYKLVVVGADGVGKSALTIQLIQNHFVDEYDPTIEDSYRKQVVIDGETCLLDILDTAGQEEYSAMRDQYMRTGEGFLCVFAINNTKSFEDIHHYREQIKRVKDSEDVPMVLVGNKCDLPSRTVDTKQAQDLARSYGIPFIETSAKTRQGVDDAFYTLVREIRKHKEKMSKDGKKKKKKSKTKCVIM

Structure (SMILES)	Dmax [%]	DC50 [nM]
CCc1cccc2cc(O)cc(-c3ncc4c(N5CC6CCC(C5)N6)nc(OCCN5CCC(CN6CCN(c7cnc(C(=O)N[C@H](C(=O)N8C[C@H](O)C[C@H]8C(=O)N[C@@H](C)c8ccc(-c9scnc9C)cc8)C(C)(C)C)cn7)CC6)CC5)nc4c3F)c12 [Compound 293]	60 to 80	< 600
CCc1cccc2cc(O)cc(-c3ncc4c(N5CC6CCC(C5)N6)nc(OCCN5CCN(c6cc([C@H](C(=O)N7C[C@H](O)C[C@H]7C(=O)N[C@@H](C)c7ccc(-c8scnc8C)cc7)C(C)C)on6)CC5)nc4c3F)c12 (relative stereo) [Compound 134, (2S,4R)-1-[(2R*)-2-[3-(4-{2-[(4-{3,8-diazabicyclo[3.2.1]octan-3-yl}-7-(8-ethyl-3-hydroxynaphthalen-1-yl)-8-fluoropyrido[4,3-d]pyrimidin-2-yl)oxy]ethyl}piperazin-1-yl)-1,2-oxazol-5-yl]-3-methylbutanoyl]-4-hydroxy-N-[(1S)-1-[4-(4-methyl-1,3-thiazol-5-yl)phenyl]ethyl]pyrrolidine-2-carboxamide]	20 to 60	1000 to 3000
CCc1cccc2cc(O)cc(-c3ncc4c(N5CC6CCC(C5)N6)nc(OC[C@@]56CCCN5[C@H](COC(=O)N5C[C@@H](C)N(c7cc([C@H](C(=O)N8C[C@H](O)C[C@H]8C(=O)N[C@@H](C)c8ccc(-c9scnc9C)cc8)C(C)C)on7)C[C@@H]5C)CC6)nc4c3F)c12 (stereo in doubt) [Compound 299, [(3S,8R)-8-[[4-(3,8-diazabicyclo[3.2.1]octan-3-yl)-7-(8-ethyl-3-hydroxy-1-naphthyl)-8-fluoro-pyrido[4,3-d]pyrimidin-2-yl]oxymethyl]-1,2,3,5,6,7-hexahydropyrrolizin-3-yl]methyl (2S,5R)-4-[5-[(1R)-1-[(2S,4R)-4-hydroxy-2-[[(1S)-1-[4-(4-methylthiazol-5-yl)phenyl]ethyl]carbamoyl]pyrrolidine-1-carbonyl]-2-methyl-propyl]isoxazol-3-yl]-2,5-dimethyl-piperazine-1-carboxylate]	80 to 100	< 600
CCc1cccc2cc(O)cc(-c3ncc4c(N5CC6CCC(C5)N6)nc(OC[C@]56CCCN5[C@H](COC(=O)N5C[C@H](C)N(c7cc([C@@H](C(=O)N8C[C@H](O)C[C@H]8C(=O)N[C@@H](C)c8ccc(-c9scnc9C)cc8)C(C)C)on7)C[C@H]5C)CC6)nc4c3F)c12 [Compound 302, [(3S,8R)-8-[[4-(3,8-diazabicyclo[3.2.1]octan-3-yl)-7-(8-ethyl-3-hydroxy-1-naphthyl)-8-fluoro-pyrido[4,3-d]pyrimidin-2-yl]oxymethyl]-1,2,3,5,6,7-hexahydropyrrolizin-3-yl]methyl (2R,5S)-4-[5-[(1S)-1-[(2S,4R)-4-hydroxy-2-[[(1S)-1-[4-(4-methylthiazol-5-yl)phenyl]ethyl]carbamoyl]pyrrolidine-1-carbonyl]-2-methyl-propyl]isoxazol-3-yl]-2,5-dimethyl-piperazine-1-carboxylate]	20 to 60	1000 to 3000
CCc1cccc2cc(O)cc(-c3ncc4c(N5CC6CCC(C5)N6)nc(OC[C@]56CCCN5C[C@H](Oc5cc([C@H](C(=O)N7C[C@H](O)C[C@H]7C(=O)N[C@@H](C)c7ccc(-c8scnc8C)cc7)C(C)C)on5)CC6)nc4c3F)c12 [Compound 318, (2S,4R)-1-[(2R)-2-[3-[[(6R,8aR)-8a-[[4-(3,8-diazabicyclo[3.2.1]octan-3-yl)-7-(8-ethyl-3-hydroxy-1-naphthyl)-8-fluoro-pyrido[4,3-d]pyrimidin-2-yl]oxymethyl]-2,3,5,6,7,8-hexahydro-1H-indolizin-6-yl]oxy]isoxazol-5-yl]-3-methyl-butanoyl]-4-hydroxy-N-[(1S)-1-[4-(4-methylthiazol-5-yl)phenyl]ethyl]pyrrolidine-2-carboxamide]	20 to 60	1000 to 3000
CCc1cccc2cccc(-c3ncc4c(N5CCCCCC5)nc(OC[C@]56CCCN5[C@H](COC(=O)N5CCN(c7cc([C@H](C(=O)N8C[C@H](O)C[C@H]8C(=O)N[C@@H](C)c8ccc(-c9scnc9C)cc8)C(C)C)on7)CC5)CC6)nc4c3F)c12 (relative stereo) [Compound 331]	–	> 3000
C#Cc1c(F)ccc2cc(O)cc(-c3ncc4c(N5CC6CCC(C5)N6)nc(OCCN5CCC6(CC5)CN(c5cc([C@H](C(=O)N7C[C@H](O)C[C@H]7C(=O)N[C@@H](C)c7ccc(-c8scnc8C)cc7)C(C)C)on5)C6)nc4c3F)c12 [Compound 33, (2S,4R)-1-[(2R)-2-[3-(7-{2-[(4-{3,8-diazabicyclo[3.2.1]octan-3-yl}-7-(8-ethynyl-7-fluoro-3-hydroxynaphthalen-1-yl)-8-fluoropyrido[4,3-d]pyrimidin-2-yl)oxy]ethyl}-2,7-diazaspiro[3.5]nonan-2-yl)-1,2-oxazol-5-yl]-3-methylbutanoyl]-4-hydroxy-N-[(1S)-1-[4-(4-methyl-1,3-thiazol-5-yl)phenyl]ethyl]pyrrolidine-2-carboxamide]	80 to 100	< 600
CCc1cccc2cc(O)cc(-c3ncc4c(N5CC6CCC(C5)N6)nc(OC[C@@]56CCCN5[C@H](COC(=O)N5CCN(c7cc([C@@H](C(=O)N8C[C@H](O)C[C@H]8C(=O)N[C@@H](C)c8ccc(-c9scnc9C)cc8)C(C)C)on7)C[C@@H]5C)CC6)nc4c3F)c12 [Compound 326, [(3S,8S)-8-[[4-(3,8-diazabicyclo[3.2.1]octan-3-yl)-7-(8-ethyl-3-hydroxy-1-naphthyl)-8-fluoro-pyrido[4,3-d]pyrimidin-2-yl]oxymethyl]-1,2,3,5,6,7-hexahydropyrrolizin-3-yl]methyl (2S)-4-[5-[(1S)-1-[(2S,4R)-4-hydroxy-2-[[(1S)-1-[4-(4-methylthiazol-5-yl)phenyl]ethyl]carbamoyl]pyrrolidine-1-carbonyl]-isobutyl]isoxazol-3-yl]-2-methyl-piperazine-1-carboxylate]	< 20	< 600
CCc1cccc2cc(O)cc(-c3ncc4c(N5CC6CCC(C5)N6)nc(OCCN5CCC(CCC6CN(c7cc([C@@H](C(=O)N8C[C@H](O)C[C@H]8C(=O)N[C@@H](C)c8ccc(-c9scnc9C)cc8)C(C)C)on7)C6)CC5)nc4c3F)c12 (single isomer, unassigned) [Compound 253, (2S,4R)-1-[(2R*)-2-(3-{3-[2-(1-{2-[(4-{3,8-diazabicyclo[3.2.1]octan-3-yl}-7-(8-ethyl-3-hydroxynaphthalen-1-yl)-8-fluoropyrido[4,3-d]pyrimidin-2-yl)oxy]ethyl}piperidin-4-yl)ethyl]azetidin-1-yl}-1,2-oxazol-5-yl)-3-methylbutanoyl]-4-hydroxy-N-[(1S)-1-[4-(4-methyl-1,3-thiazol-5-yl)phenyl]ethyl] pyrrolidine-2-carboxamide]	20 to 60	1000 to 3000
CCc1cccc2cc(O)cc(-c3ncc4c(N5CC6CCC(C5)N6)nc(OC[C@@]56CCCN5[C@H](COC(=O)NCc5cc([C@H](C(=O)N7C[C@H](O)C[C@H]7C(=O)N[C@@H](C)c7ccc(-c8scnc8C)cc7)C(C)C)on5)CC6)nc4c3F)c12 [Compound 104, [(3S,7aS)-7a-{[(4-{3,8-diazabicyclo[3.2.1]octan-3-yl}-7-(8-ethyl-3-hydroxynaphthalen-1-yl)-8-fluoropyrido[4,3-d]pyrimidin-2-yl)oxy]methyl}-hexahydro-1H-pyrrolizin-3-yl]methyl N-({5-[(2R)-1-[(2S,4R)-4-hydroxy-2-{[(1S)-1-[4-(4-methyl-1,3-thiazol-5-yl)phenyl]ethyl]carbamoyl}pyrrolidin-1-yl]-3-methyl-1-oxobutan-2-yl]-1,2-oxazol-3-yl}methyl) carbamate]	80 to 100	< 600
CCc1cccc2cc(O)cc(-c3ncc4c(N5CC6CCC(C5)N6)nc(OCCN5CCC(F)(CN6CCN(c7cnc(C(=O)N[C@H](C(=O)N8C[C@H](O)C[C@H]8C(=O)N[C@@H](C)c8ccc(-c9scnc9C)cc8)C(C)(C)C)cn7)CC6)CC5)nc4c3F)c12 [Compound 155, 5-{4-[(1-{2-[(4-{3,8-diazabicyclo[3.2.1]octan-3-yl}-7-(8-ethyl-3-hydroxynaphthalen-1-yl)-8-fluoropyrido[4,3-d]pyrimidin-2-yl)oxy]ethyl}-4-fluoropiperidin-4-yl)methyl]piperazin-1-yl}-N-[(2S)-1-[(2S,4R)-4-hydroxy-2-{[(1S)-1-[4-(4-methyl-1,3-thiazol-5-yl)phenyl]ethyl]carbamoyl}pyrrolidin-1-yl]-3,3-dimethyl-1-oxobutan-2-yl]pyrazine-2-carboxamide]	60 to 80	< 600
